Laboratory results taken from PubChem BioAssay AID184 (DTP/NCI, 2004).
Where “and” joins values, the source holds several entries; their conditions need not be identical. Equal entries are not always repeated. Inconclusive results and toxic doses are left out.

Test system: BALB/cJ mice, ADJ-PC-6 ip tumor, median survival T/C
Test: NCI In Vivo Anticancer Drug Screen. Data for tumor model ADJ-PC-6 (intraperitoneal) in BALB/cJ mice
Conditions: endpoint: median survival time, higher = longer survival
Protocol: The antitumor activity of compounds was measured in mice bearing transplantable tumors. Survival or tumor size were measured and the results are expressed as the measurement made in the treated group (T) divided by the measurement made in the vehicle treated control group (C). The tumor model used in this assay is ADJ-PC-6 (intraperitoneal) in BALB/cJ mice

[1] = dose: 2.0 mg/kg/injection, schedule: Q04DX003 (ip), vehicle: saline
[2] = dose: 10.0 mg/kg/injection, schedule: Q04DX003 (ip), vehicle: saline

## CO[C@H]1C[C@@H]2CC[C@@H](C)[C@@](O)(O2)C(=O)C(=O)N2CCCC[C@H]2C(=O)O[C@H]([C@H](C)C[C@@H]2CC[C@@H](O)[C@H](OC)C2)CC(=O)[C@H](C)C=C(C)[C@@H](O)[C@@H](OC)C(=O)[C@H](C)C[C@H](C)/C=C/C=C/C=C1C
dose: 7.5 mg/kg/injection, schedule: Q01DX009 (ip), vehicle: saline with Tween-80
  T/C: 113 % of control and 114 % of control
dose: 15.0 mg/kg/injection, schedule: Q01DX009 (ip), vehicle: saline with Tween-80
  T/C: 116 % of control
dose: 25.0 mg/kg/injection, schedule: Q01DX009 (ip), vehicle: saline
  T/C: 87 % of control
dose: 30.0 mg/kg/injection, schedule: Q01DX009 (ip), vehicle: saline with Tween-80
  T/C: 114 % of control and 118 % of control
dose: 50.0 mg/kg/injection, schedule: Q01DX009 (ip), vehicle: saline
  T/C: 98 % of control
dose: 60.0 mg/kg/injection, schedule: Q01DX009 (ip), vehicle: saline with Tween-80
  T/C: 95 % of control and 110 % of control
dose: 100.0 mg/kg/injection, schedule: Q01DX009 (ip), vehicle: saline
  T/C: 87 % of control
dose: 120.0 mg/kg/injection, schedule: Q01DX009 (ip), vehicle: saline with Tween-80
  T/C: 87 % of control
dose: 200.0 mg/kg/injection, schedule: Q01DX009 (ip), vehicle: saline
  T/C: 93 % of control

## CC[C@]1(O)C[C@H]2CN(CCc3c([nH]c4ccccc34)[C@@](C(=O)OC)(c3cc4c(cc3OC)N(C=O)[C@H]3[C@@](O)(C(=O)OC)[C@H](OC(C)=O)[C@]5(CC)C=CCN6CC[C@]43[C@@H]65)C2)C1
dose: 0.13 mg/kg/injection, schedule: Q04DX003 (ip), vehicle: saline
  T/C: 99 % of control and 110 % of control
dose: 0.25 mg/kg/injection, schedule: Q04DX003 (ip), vehicle: saline
  T/C: 101 % of control and 110 % of control
dose: 0.5 mg/kg/injection, schedule: Q04DX003 (ip), vehicle: saline
  T/C: 97 % of control and 102 % of control
dose: 1.0 mg/kg/injection, schedule: Q04DX003 (ip), vehicle: saline
  T/C: 106 % of control and 121 % of control
[1]
  T/C: 122 % of control

## CO[C@H]1C[C@](C)(O)Cc2cc3c(c(O)c21)C(=O)c1c(O)cc2c(c1C3=O)O[C@@H]1O[C@@]2(C)[C@H](O)[C@@H](N(C)C)[C@@H]1O
dose: 7.5 mg/kg/injection, schedule: Q04DX003 (ip), vehicle: saline
  T/C: 188 % of control
dose: 12.5 mg/kg/injection, schedule: Q04DX003 (ip), vehicle: saline
  T/C: 189 % of control
dose: 15.0 mg/kg/injection, schedule: Q04DX003 (ip), vehicle: saline
  T/C: 319 % of control
dose: 25.0 mg/kg/injection, schedule: Q04DX003 (ip), vehicle: saline
  T/C: 252 % of control
dose: 30.0 mg/kg/injection, schedule: Q04DX003 (ip), vehicle: saline
  T/C: 267 % of control
dose: 60.0 mg/kg/injection, schedule: Q04DX003 (ip), vehicle: saline
  T/C: 471 % of control

## NC(C/[N+]([O-])=N/O)C(=O)O (configuration not stated)
dose: 50.0 mg/kg/injection, schedule: Q04DX003 (ip), vehicle: alkali diluted with saline
  T/C: 108 % of control
dose: 100.0 mg/kg/injection, schedule: Q04DX003 (ip), vehicle: alkali diluted with saline
  T/C: 115 % of control
dose: 250.0 mg/kg/injection, schedule: Q04DX003 (ip), vehicle: alkali diluted with saline
  T/C: 153 % of control
dose: 400.0 mg/kg/injection, schedule: Q04DX003 (ip), vehicle: alkali diluted with saline
  T/C: 171 % of control
dose: 500.0 mg/kg/injection, schedule: Q04DX003 (ip), vehicle: alkali diluted with saline
  T/C: 188 % of control
dose: 800.0 mg/kg/injection, schedule: Q04DX003 (ip), vehicle: alkali diluted with saline
  T/C: 167 % of control

## N[C@@H](Cc1ccc(N(CCCl)CCCl)cc1)C(=O)O
[1]
  T/C: 177 % of control
dose: 2.5 mg/kg/injection, schedule: Q04DX003 (ip), vehicle: saline
  T/C: 203 % of control
dose: 4.0 mg/kg/injection, schedule: Q04DX003 (ip), vehicle: saline
  T/C: 236 % of control
dose: 5.0 mg/kg/injection, schedule: Q04DX003 (ip), vehicle: saline
  T/C: 240 % of control
dose: 8.0 mg/kg/injection, schedule: Q04DX003 (ip), vehicle: saline
  T/C: 230 % of control
[2]
  T/C: 335 % of control
dose: 16.0 mg/kg/injection, schedule: Q04DX003 (ip), vehicle: saline
  T/C: 307 % of control

## N[C@H](C(=O)O)[C@@H]1CC(Cl)=NO1
dose: 1.0 mg/kg/injection, schedule: Q01DX009 (ip), vehicle: saline
  T/C: 121 % of control

## CC(=O)N(C)c1ccc(Nc2cc(C)[nH]c3ccc4ncnc4c23)cc1
[2]
  T/C: 100 % of control
dose: 20.0 mg/kg/injection, schedule: Q04DX003 (ip), vehicle: saline
  T/C: 162 % of control
dose: 40.0 mg/kg/injection, schedule: Q04DX003 (ip), vehicle: saline
  T/C: 107 % of control

## O=NN(CCCl)C(=O)NCCCl
dose: 1.25 mg/kg/injection, schedule: Q04DX003 (ip), vehicle: saline + alcohol
  T/C: 106 % of control
dose: 5.0 mg/kg/injection, schedule: Q04DX003 (ip), vehicle: saline + alcohol
  T/C: 101 % of control and 178 % of control and 248 % of control
dose: 10.0 mg/kg/injection, schedule: Q04DX003 (ip), vehicle: saline + alcohol
  T/C: 150 % of control and 322 % of control
dose: 20.0 mg/kg/injection, schedule: Q04DX003 (ip), vehicle: saline + alcohol
  T/C: 222 % of control and 235 % of control and 355 % of control
dose: 40.0 mg/kg/injection, schedule: Q04DX003 (ip), vehicle: saline + alcohol
  T/C: 92 % of control and 235 % of control
